The record followed here is patent US8012980B2, “Isoquinolinone derivatives” (AstraZeneca AB, priority 2008, dated 2011).

Where a name gives a salt, the structure may show the parent alone.

In this test the target is T1, human active recombinant p38 (p38α) (Homo sapiens, UniProt Q16539).
T1 construct: 6His
The test is described as follows: p38 Alpha Enzyme Assay (AlphaScreen, biotinylated-ATF2 substrate). It counts as biochemical. To be noted: means of replicate determinations; pre-incubated for 4 hours at 37° C.; SD of assay between 0.2 and 0.3 log units; read-out: p38α inhibition Mean pIC50 (converted). As to the method:
The ability of the compounds of formula (I) to inhibit p38 kinase may be determined using the following biological assay:
Enzyme assays were performed in polypropylene 96 well plates. The following solutions were added to each well; 10 μL of compound dilutions in assay buffer (20 mM HEPES pH 7.4, containing 20 mM magnesium acetate, 0.005% (w/v) Tween-20, 10 mM DTT) containing 1% (v/v) DMSO or assay buffer containing 1% (v/v) DMSO alone, 70 μL of assay buffer containing 36 nM substrate (biotinylated-ATF2) and 10 μL of an appropriate dilution of human active recombinant p38-6H is tagged. Depending on batch of p38, an appropriate dilution was typically a 5 nM solution to give a final enzyme concentration of 0.5 nM. At this stage, background control wells also received 50 μL of AlphaScreen quench buffer (10 mM HEPES pH 7.4 containing 100 mM EDTA, 0.2% (w/v) bovine serum albumin). The plate was covered, pre-incubated for 4 hours at 37° C. and the enzyme reaction initiated by addition of 10 μL 1 mM ATP. After incubation for a further 45 minutes at 37° C., the reaction was stopped by addition of 50 μL quench reagent and 50 μL of the quenched reaction mixture transferred to an opaque, white 96-well plate. Detection reagent, 25 μL of 10 mM HEPES pH 7.4 containing 100 mM EDTA, 0.2% (w/v) bovine serum albumin, 0.3 nM anti phosphoATF2 antibody and 25 μg/mL of AlphaScreen protein A acceptor and donor beads' (PerkinElmer Inc.), was added to all wells in a darkened room, the plate sealed and left in the dark for at least 5 hours before AlphaScreen readings were taken using a Perkin Elmer EnVision reader. Total, uninhibited activity was determined from assays performed in each assay plate. The mean control in the absence of p38 activity was subtracted from each well. Data were expressed as percent inhibition of total activity using equation 1. Percent Inhibition=100*(1−Test/Control) Eq.1 Where . . . Test=p38 kinase activity in the presence of compound Control=p38 kinase activity in the absence of compound.
pIC50 is defined as the logarithm of the reciprocal of the concentration of compound required for 50% reduction in total p38 kinase activity.
The standard deviation of the p38 enzyme inhibition assay is between 0.2 and 0.3 log units.
In general terms: Bead proximity is the source of the signal in Alpha formats.

T1 sequence (Q16539 whole entry): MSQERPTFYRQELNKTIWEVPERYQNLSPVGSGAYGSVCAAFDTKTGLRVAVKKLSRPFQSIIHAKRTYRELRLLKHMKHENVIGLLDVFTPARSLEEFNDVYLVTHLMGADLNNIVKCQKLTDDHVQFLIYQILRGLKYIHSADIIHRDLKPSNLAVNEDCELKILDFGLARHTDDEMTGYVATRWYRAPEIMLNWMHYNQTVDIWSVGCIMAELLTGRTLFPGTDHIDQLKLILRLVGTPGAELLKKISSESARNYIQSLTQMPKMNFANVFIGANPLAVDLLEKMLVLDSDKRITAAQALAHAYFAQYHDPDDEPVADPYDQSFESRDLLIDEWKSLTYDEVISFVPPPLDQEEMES

`Cc1c(F)cc(C(=O)NC2CC2)cc1-c1ccc2c(=O)n(CC3(CO)CC3)cc(CN3CCN[C@@H](CO)C3)c2c1` [Example 12, N-Cyclopropyl-3-fluoro-5-(2-((1-(hydroxymethyl)cyclopropyl)methyl)-4-(((3R)-3-(hydroxymethyl)piperazin-1-yl)methyl)-1-oxo-1,2-dihydroisoquinolin-6-yl)-4-methylbenzamide]: the IC50 was 0.398 nM. With `Cc1c(F)cc(C(=O)NC2CC2)cc1-c1ccc2c(=O)n(CC(C)(C)CO)cc(C(C)N3CCN[C@@H](CO)C3)c2c1` (stereo partly drawn) [Example 45, N-Cyclopropyl-3-fluoro-5-[2-(3-hydroxy-2,2-dimethylpropyl)-4-{1-[(3R)-3-(hydroxymethyl)piperazin-1-yl]ethyl}-1-oxo-1,2-dihydroisoquinolin-6-yl]-4-methylbenzamide] the figure was 0.126 nM; with `Cc1c(F)cc(C(=O)NC2CC2)cc1-c1ccc2c(=O)n(CC(C)(C)CO)cc(CN3CCC[C@@H](N)C3)c2c1` [Example 30, 3-[4-{[(3R)-3-Aminopiperidin-1-yl]methyl}-2-(3-hydroxy-2,2-dimethylpropyl)-1-oxo-1,2-dihydroisoquinolin-6-yl]-N-cyclopropyl-5-fluoro-4-methylbenzamide], 0.126 nM; with `Cc1c(F)cc(C(=O)NC2CC2)cc1-c1ccc2c(=O)n(CC(C)(C)CO)cc(CN3CCNC[C@H]3CO)c2c1` [Example 21, N-Cyclopropyl-3-fluoro-5-[2-(3-hydroxy-2,2-dimethylpropyl)-4-{[(2S)-2-(hydroxymethyl)piperazin-1-yl]methyl}-1-oxo-1,2-dihydroisoquinolin-6-yl]-4-methylbenzamide], 0.251 nM. With `Cc1c(F)cc(C(=O)NC2CC2)cc1-c1ccc2c(=O)n(CC(C)(C)CO)cc(C(C)N3CCC[C@@H](N)C3)c2c1` (stereo partly drawn) [Example 42, 3-[4-{1-[(3R)-3-Aminopiperidin-1-yl]ethyl}-2-(3-hydroxy-2,2-dimethylpropyl)-1-oxo-1,2-dihydroisoquinolin-6-yl]-N-cyclopropyl-5-fluoro-4-methylbenzamide] the figure was 0.794 nM; with `Cc1c(F)cc(C(=O)NC2CC2)cc1-c1ccc2c(=O)n(CC3(CO)CC3)cc(SC3CCNCC3)c2c1` [Example 64, N-Cyclopropyl-3-fluoro-5-[2-{[1-(hydroxymethyl)cyclopropyl]methyl}-1-oxo-4-(piperidin-4-ylsulfanyl)-1,2-dihydroisoquinolin-6-yl]-4-methylbenzamide], 0.1 nM; with `Cc1c(F)cc(C(=O)NC2CC2)cc1-c1ccc2c(=O)n(CC3CC3)cc(S(=O)(=O)N3CCCNCC3)c2c1` [Example 51, N-cyclopropyl-3-[2-(cyclopropylmethyl)-4-(1,4-diazepan-1-ylsulfonyl)-1-oxo-1,2-dihydroisoquinolin-6-yl]-5-fluoro-4-methylbenzamide], 0.1 nM. Then `Cc1c(F)cc(C(=O)NC2CC2)cc1-c1ccc2c(=O)n(CC(C)(C)CO)cc(CN3CCN[C@@H](C)C3)c2c1` [Example 29, N-Cyclopropyl-3-fluoro-5-[2-(3-hydroxy-2,2-dimethylpropyl)-4-{[(3S)-3-methylpiperazin-1-yl]methyl}-1-oxo-1,2-dihydroisoquinolin-6-yl]-4-methylbenzamide hydrochloride], with 0.794 nM; and `Cc1c(F)cc(C(=O)NC2CC2)cc1-c1ccc2c(=O)n(CC3(CO)CCC3)cc(CN3CCNCC3)c2c1` [Example 27, N-Cyclopropyl-3-fluoro-5-[2-{[1-(hydroxymethyl)cyclobutyl]methyl}-1-oxo-4-(piperazin-1-ylmethyl)-1,2-dihydroisoquinolin-6-yl]-4-methylbenzamide], with 0.316 nM. Consider `Cc1c(F)cc(C(=O)NC2CC2)cc1-c1ccc2c(=O)n(C[C@H](C)CO)cc(CN3CCNCC3)c2c1` [Example 18, N-Cyclopropyl-3-fluoro-5-{2-[(2S)-3-hydroxy-2-methylpropyl]-1-oxo-4-(piperazin-1-ylmethyl)-1,2-dihydroisoquinolin-6-yl}-4-methylbenzamide], for which the IC50 is 0.794 nM. With `Cc1c(F)cc(C(=O)NC2CC2)cc1-c1ccc2c(=O)n(CC(C)(C)CO)cc(S(=O)(=O)N3CCC[C@@H]3CN)c2c1` [Example 55, 3-[4-{[(2R)-2-(aminomethyl)pyrrolidin-1-yl]sulfonyl}-2-(3-hydroxy-2,2-dimethylpropyl)-1-oxo-1,2-dihydroisoquinolin-6-yl]-N-cyclopropyl-5-fluoro-4-methylbenzamide] the figure was 2.51 nM.

For `Cc1c(F)cc(C(=O)NC2CC2)cc1-c1ccc2c(=O)n(CC(C)(C)CO)cc(CN3CCNCC3)c2c1` [Example 1, N-Cyclopropyl-3-fluoro-5-[2-(3-hydroxy-2,2-dimethylpropyl)-1-oxo-4-(piperazin-1-ylmethyl)-1,2-dihydroisoquinolin-6-yl]-4-methylbenzamide], the IC50 was 0.126 nM.

`COCCCn1cc(CN2CCN[C@@H](CO)C2)c2cc(-c3cc(C(=O)NC4CC4)cc(F)c3C)ccc2c1=O` [Example 13]: the IC50 is 0.501 nM.

Take `Cc1c(F)cc(C(=O)NC2CC2)cc1-c1ccc2c(=O)n(CC(C)(C)CO)cc(S[C@H]3CCN[C@H](CO)C3)c2c1` [Example 67, N-Cyclopropyl-3-fluoro-5-[2-(3-hydroxy-2,2-dimethylpropyl)-4-{[(2S,4S)-2-(hydroxymethyl)piperidin-4-yl]sulfanyl}-1-oxo-1,2-dihydroisoquinolin-6-yl]-4-methylbenzamide]: the IC50 is 0.251 nM. With `Cc1c(F)cc(C(=O)NC2CC2)cc1-c1ccc2c(=O)n(CCCCO)cc(CN3CCCN(C)CC3)c2c1` [Example 8, N-Cyclopropyl-3-fluoro-5-{2-(4-hydroxybutyl)-4-[(4-methyl-1,4-diazepan-1-yl)methyl]-1-oxo-1,2-dihydroisoquinolin-6-yl}-4-methylbenzamide] the figure was 0.251 nM; with `Cc1c(F)cc(C(=O)NC2CC2)cc1-c1ccc2c(=O)n(CCO)cc(CN3CCNCC3)c2c1` [Example 5, N-Cyclopropyl-3-fluoro-5-(2-(2-hydroxyethyl)-1-oxo-4-(piperazin-1-ylmethyl)-1,2-dihydroisoquinolin-6-yl)-4-methylbenzamide], 0.2 nM; with `Cc1c(F)cc(C(=O)NC2CC2)cc1-c1ccc2c(=O)n(CC3CC3)cc(S(=O)(=O)C3CCNCC3)c2c1` [Example 62, N-Cyclopropyl-3-[2-(cyclopropylmethyl)-1-oxo-4-(piperidin-4-ylsulfonyl)-1,2-dihydroisoquinolin-6-yl]-5-fluoro-4-methylbenzamide], 0.2 nM. Then `Cc1c(F)cc(C(=O)NC2CC2)cc1-c1ccc2c(=O)n(CC3CC3)cc(S(=O)(=O)N3CCC(N)CC3)c2c1` [Example 50, 3-{4-[(4-Aminopiperidin-1-yl)sulfonyl]-2-(cyclopropylmethyl)-1-oxo-1,2-dihydroisoquinolin-6-yl}-N-cyclopropyl-5-fluoro-4-methylbenzamide], with 0.2 nM; and `Cc1c(F)cc(C(=O)NC2CC2)cc1-c1ccc2c(=O)n(CCCO)cc(CN3CCNCC3)c2c1` [Example 10, N-Cyclopropyl-3-fluoro-5-[2-(3-hydroxypropyl)-1-oxo-4-(piperazin-1-ylmethyl)-1,2-dihydroisoquinolin-6-yl]-4-methylbenzamide], with 0.0794 nM; and `Cc1c(F)cc(C(=O)NC2CC2)cc1-c1ccc2c(=O)n(CC(C)(C)CO)cc(C(C)N3CCN[C@@H](CO)C3)c2c1` (stereo partly drawn) [Example 44, N-Cyclopropyl-3-fluoro-5-[2-(3-hydroxy-2,2-dimethylpropyl)-4-{1-[(3R)-3-(hydroxymethyl)piperazin-1-yl]ethyl}-1-oxo-1,2-dihydroisoquinolin-6-yl]-4-methylbenzamide], with 1.26 nM. As for `Cc1c(F)cc(C(=O)NC2CC2)cc1-c1ccc2c(=O)n(CC(C)(C)CO)cc(S(=O)(=O)C3CCNCC3)c2c1` [Example 60, N-Cyclopropyl-3-fluoro-5-[2-(3-hydroxy-2,2-dimethylpropyl)-1-oxo-4-(piperidin-4-ylsulfonyl)-1,2-dihydroisoquinolin-6-yl]-4-methylbenzamide], the IC50 is 0.398 nM. With `Cc1c(F)cc(C(=O)NC2CC2)cc1-c1ccc2c(=O)n(CC3(CO)CC3)cc(CN3CCN[C@H](CO)C3)c2c1` [Example 15, N-Cyclopropyl-3-fluoro-5-(2-((1-(hydroxymethyl)cyclopropyl)methyl)-4-(((3S)-3-(hydroxymethyl)piperazin-1-yl)methyl)-1-oxo-1,2-dihydroisoquinolin-6-yl)-4-methylbenzamide] the figure was 0.501 nM.
